Test systems include 786-0; HCT-15; HT-29; M14; NCI-H522; CCRF-CEM; A549; NCI-H460; SNB-75; CAKI-1; BT-549; NCI-H23; NCI/ADR-RES; NCI-H226; UACC-62; SK-MEL-28; A498; IGROV-1; MOLT-4; RPMI-8226.
What all share (experiment): inhibition of tumour cell growth, NCI panel, 48 h

The structures appear in SMILES notation.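 How tested: cells in 96-well plates exposed to compound for 48 hours at five concentrations. At the GI50, growth is halved.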 Activity calls are given as the source filed them. Cut-off read from the data, not from the text of the source: active = GI50 up to about 1.1 µM and inactive = higher.

In the case of `Cc1cc(C)nc(NS(=O)(=O)c2ccc(Nc3c4ccccc4nc4ccc(C(=O)Nc5ccc(S(=O)(=O)N=C(N)N)cc5)cc34)cc2)n1`, the GI50 was 23.3 µM (inactive) in the assay on 786-0; 33.3 µM in the assay on HCT-15; 59.4 µM (inactive) in the assay on HT-29; > 100 µM (inactive) in the assay on M14; 65.8 µM (inactive) in the assay on NCI-H522; 31 µM (inactive) with CCRF-CEM. Also, the GI50 was > 100 µM (inactive) in the assay on A549; 36 µM (inactive) in the assay with NCI-H460; > 100 µM (inactive) with SNB-75; > 100 µM (inactive) in the assay on CAKI-1; 30.5 µM (inactive) in the assay on BT-549; > 100 µM (inactive) in the assay on NCI-H23. Moreover, the GI50 with NCI/ADR-RES, with NCI-H226, in the assay on UACC-62, with SK-MEL-28, in the assay on A498 and in the assay on IGROV-1 was > 100 µM (inactive) in each case. The values for the GI50 in the assay on MOLT-4 and in the assay with RPMI-8226 were 32.3 µM (inactive) and 35.7 µM (inactive), respectively.

Take `N#CN1C2CCC1CC(=O)C2`: the GI50 is > 100 µM (inactive) with 786-0; above 100 µM in the assay with HCT-15; > 100 µM (inactive) in the assay with HT-29; > 100 µM (inactive) with M14; > 100 µM (inactive) in the assay with NCI-H522; > 100 µM (inactive) in the assay with CCRF-CEM. Moreover, the GI50 with A549, with NCI-H460, in the assay on SNB-75, with CAKI-1, with BT-549 and in the assay on NCI-H23 was > 100 µM (inactive) in each case. Also, the GI50 in the assay on NCI/ADR-RES is > 100 µM (inactive); in the assay on NCI-H226 it was > 10 µM (inactive); in the assay on UACC-62, > 100 µM (inactive); in the assay with SK-MEL-28, > 100 µM (inactive); in the assay with A498, > 100 µM (inactive); in the assay with IGROV-1, > 100 µM (inactive). In addition, the GI50 with MOLT-4 and in the assay on RPMI-8226 was > 100 µM (inactive) each time.

On to `CN(C)CCC(=O)N1C/C(=C\c2ccc(Cl)c(Cl)c2)C(=O)/C(=C/c2ccc(Cl)c(Cl)c2)C1`, for which the GI50 with 786-0 is 0.125 µM (active); in the assay on HCT-15, 0.184 µM; with HT-29, 0.188 µM (active); with M14, 0.291 µM (active); with NCI-H522, 0.2 µM (active); in the assay with CCRF-CEM, 0.0269 µM (active). Besides, the GI50 with A549 was 0.531 µM (active); with NCI-H460 it was 0.479 µM (active); in the assay with SNB-75 it was 0.415 µM (active); in the assay on CAKI-1 it was 0.394 µM (active); in the assay with BT-549, 0.426 µM (active); in the assay on NCI-H23, 0.504 µM (active). The GI50 in the assay with NCI/ADR-RES was 0.147 µM (active); with NCI-H226 it was 0.705 µM (active); with UACC-62 it was 0.608 µM (active); in the assay with SK-MEL-28, 0.618 µM (active); in the assay with A498 it was 1.32 µM (inactive); with IGROV-1, 0.434 µM (active). For the same compound, the GI50 is 0.19 µM (active) in the assay with MOLT-4 and 0.074 µM (active) in the assay with RPMI-8226.

For `CCN(CC)CCCNc1nncc2c(C)c3[nH]c4ccc(OC)cc4c3cc12`, the GI50 in the assay on 786-0 is 0.222 µM (active); with HCT-15 it was 10.3 µM; with HT-29, 0.504 µM (active); with M14 it was 1.61 µM (inactive); in the assay with NCI-H522, 0.0256 µM (active); in the assay with CCRF-CEM it was 0.0535 µM (active). For the same compound, the GI50 in the assay on A549 was 0.718 µM (active); with NCI-H460, 0.789 µM (active); with SNB-75, 0.64 µM (active); with CAKI-1 it was 8.41 µM (inactive); in the assay with BT-549, 1.54 µM (inactive); in the assay with NCI-H23 it was 0.421 µM (active). In addition, the GI50 in the assay on NCI/ADR-RES was 38.8 µM (inactive); in the assay with NCI-H226, 0.0557 µM (active); in the assay on UACC-62 it was 1.29 µM (inactive); in the assay on SK-MEL-28 it was 0.766 µM (active); in the assay with A498 it was 1.75 µM (inactive); in the assay on IGROV-1, 0.356 µM (active). Also, the GI50 was 0.0173 µM (active) with MOLT-4 and 0.724 µM (active) in the assay with RPMI-8226.

Consider `Cc1c(Cl)c(C)c(Cl)c(O)c1Cl`, for which the GI50 is 43.3 µM (inactive) in the assay with 786-0; 21.8 µM in the assay on HCT-15; 48.5 µM (inactive) in the assay on HT-29; 20.5 µM (inactive) in the assay with M14; 17.9 µM (inactive) with NCI-H522; 33.7 µM (inactive) in the assay on CCRF-CEM. Further, the GI50 with A549 was 21.2 µM (inactive); with NCI-H460, 24.7 µM (inactive); in the assay with SNB-75 it was 23.9 µM (inactive); in the assay on CAKI-1, 21.4 µM (inactive); in the assay with BT-549, 24.3 µM (inactive); in the assay on NCI-H23, 28.1 µM (inactive). Further, the GI50 was 22.2 µM (inactive) with NCI/ADR-RES; 15.1 µM (inactive) in the assay with NCI-H226; 16.7 µM (inactive) in the assay with UACC-62; 38.4 µM (inactive) in the assay with SK-MEL-28; 19 µM (inactive) in the assay on A498; 44.3 µM (inactive) in the assay with IGROV-1. Further, the results for the GI50 in the assay with MOLT-4 and in the assay on RPMI-8226 were 17.1 µM (inactive) and 17.3 µM (inactive), respectively.

`O=C(N[C@H](CO)[C@H](O)c1ccc([N+](=O)[O-])cc1)C(Cl)Cl` [CHLORAMPHENICOL]: the GI50 in the assay on 786-0 was > 100 µM (inactive); with HCT-15 it was above 100 µM; in the assay on HT-29, > 100 µM (inactive); in the assay with M14, > 100 µM (inactive); in the assay with NCI-H522, > 100 µM (inactive); in the assay on CCRF-CEM it was > 100 µM (inactive). Besides, the GI50 is > 100 µM (inactive) with A549; > 100 µM (inactive) with NCI-H460; 98.2 µM (inactive) with SNB-75; > 100 µM (inactive) in the assay with CAKI-1; > 100 µM (inactive) in the assay with BT-549; > 100 µM (inactive) in the assay with NCI-H23. The GI50 in the assay with NCI/ADR-RES, in the assay on NCI-H226, in the assay on UACC-62, in the assay on SK-MEL-28, in the assay with A498 and in the assay on IGROV-1 was > 100 µM (inactive) in each case. The GI50 with MOLT-4 and in the assay on RPMI-8226 was > 100 µM (inactive) each time.

As to `N#Cc1ccc2[nH]c3c(c2c1)CC(=O)Nc1ccccc1-3` [PAULLONE 2], the GI50 is > 100 µM (inactive) in the assay on 786-0; above 100 µM in the assay with HCT-15; > 100 µM (inactive) in the assay on HT-29; > 100 µM (inactive) in the assay on M14; 28.8 µM (inactive) with NCI-H522; > 100 µM (inactive) with CCRF-CEM. The GI50 in the assay with A549, in the assay on NCI-H460, in the assay with SNB-75, in the assay with CAKI-1, with BT-549 and in the assay with NCI-H23 was > 100 µM (inactive) throughout. Also, the GI50 in the assay with NCI/ADR-RES was > 100 µM (inactive); in the assay on NCI-H226, > 100 µM (inactive); in the assay with UACC-62, > 100 µM (inactive); with SK-MEL-28, > 100 µM (inactive); with A498, > 100 µM (inactive); in the assay with IGROV-1 it was 99.8 µM (inactive). For the same compound, the GI50 in the assay on MOLT-4 and in the assay on RPMI-8226 was > 100 µM (inactive) throughout.

Values taken from ChEMBL document CHEMBL1201862, “PubChem BioAssay data set” (2004).
